Source: US20220167615A1, “FUNGICIDAL COMPOSITIONS” (SYNGENTA CROP PROTECTION AG, priority 2019, published 2022)
Where two headings read alike, the source gives them in different places.

Experiments:
[1] = tested on: Botryotinia fuckeliana (Botrytis cinerea); test: Botryotinia fuckeliana (Botrytis cinerea) / liquid culture (Gray mould); type: cell-based; conditions: read-out: disease control (inhibition of growth, photometric)
[2] = tested on: Glomerella lagenarium (Colletotrichum lagenarium); test: Glomerella lagenarium (Colletotrichum lagenarium) / liquid culture (Anthracnose); type: cell-based; conditions: Colletotrichum orbiculare, read-out: disease control (inhibition of growth, photometric)
[3] = tested on: Monographella nivalis (Microdochium nivale); test: Monographella nivalis (Microdochium nivale) / liquid culture (foot rot cereals); type: cell-based; conditions: read-out: disease control (inhibition of growth, photometric)
[4] = tested on: Mycosphaerella graminicola (Septoria tritici); test: Mycosphaerella graminicola (Septoria tritici) / liquid culture (Septoria blotch); type: cell-based; conditions: Zymoseptoria tritici, read-out: disease control (inhibition of growth, photometric)
[5] = tested on: Puccinia recondita f. sp. tritici; test: Puccinia recondita f. sp. tritici / wheat / leaf disc preventative (Brown rust); type: in vivo; conditions: foliar, read-out: percent disease control compared to untreated
[6] = tested on: Magnaporthe grisea (Pyricularia oryzae); test: whole plant or invertebrate; type: in vivo; conditions: foliar, read-out: percent disease control compared to untreated
[7] = tested on: Mycosphaerella arachidis (Cercospora arachidicola); test: Mycosphaerella arachidis (Cercospora arachidicola) / liquid culture (early leaf spot); type: cell-based; conditions: read-out: disease control (inhibition of growth, photometric)
Phakopsora pachyrhizi = Phakopsora pachyrhizi / soybean / leaf disc preventative (Asian soybean rust); type: in vivo; conditions: foliar, read-out: percent disease control compared to untreated
[8] = tested on: Phaeosphaeria nodorum (Septoria nodorum); test: Phaeosphaeria nodorum (Septoria nodorum) / wheat / leaf disc preventative (Glume blotch); type: in vivo; conditions: Parastagonospora nodorum, foliar, read-out: percent disease control compared to untreated
[9] = 20 ppm in the applied formulation, Vogels broth, 24° C., 3-4 days after application, vs untreated control
[10] = 20 ppm in the applied formulation, PDB, 24° C., 3 to 4 days after application, vs untreated control
[11] = 20 ppm in the applied formulation, PDB, 24° C., 4-5 days after application, vs untreated control
[12] = 20 ppm in the applied formulation, PDB, 24° C., 4 to 5 days after application, vs untreated control
[13] = 200 ppm in the applied formulation, wheat leaf segments cv. Kanzler, inoculated 1 day after application, assessed 7-9 days after application
[14] = 200 ppm in the applied formulation, soybean leaf disks, inoculated one day after application, assessed 12 to 14 days after application
[15] = 200 ppm in the applied formulation, wheat leaf segments cv. Kanzler, inoculated 2 days after application, assessed 5-7 days after application

COc1ccnc(C(=O)N[C@@H](C)C(=O)OC(C)C(C)c2ccc3ccccc3n2)c1O (stereo partly drawn) [X.10, [1-methyl-2-(2-quinolyl)propyl] (2S)-2-[(3-hydroxy-4-methoxy-pyridine-2-carbonyl)amino]propanoate]
≥ 80%: inhibition at 20 ppm [1, 9] | inhibition at 20 ppm [2, 10] | inhibition at 20 ppm [3, 11] | inhibition at 20 ppm [4, 12] | pest or weed control at 200 ppm [5, 13]

COc1ccnc(C(=O)N[C@@H](C)C(=O)OC(C)C(C)(C)c2ccc(Br)cc2)c1O (stereo partly drawn) [X.08, [2-(4-bromophenyl)-1,2-dimethyl-propyl] (2S)-2-[(3-hydroxy-4-methoxy-pyridine-2-carbonyl)amino]propanoate]
≥ 80%: inhibition at 20 ppm [1, 9] | inhibition at 20 ppm [2, 10] | pest or weed control at 200 ppm [6] | inhibition at 20 ppm [3, 11] | inhibition at 20 ppm [7, 11] | inhibition at 20 ppm [4, 12] | pest or weed control at 200 ppm [5, 13]

COc1ccnc(C(=O)N[C@@H](C)C(=O)OC(C)C(C)c2ncc(Cl)cc2Cl)c1O (stereo partly drawn) [X.03, [2-(3,5-dichloro-2-pyridyl)-1-methyl-propyl] (2S)-2-[(3-hydroxy-4-methoxy-pyridine-2-carbonyl)amino]propanoate]
≥ 80%: inhibition at 20 ppm [1] | inhibition at 20 ppm [2] | inhibition at 20 ppm [3] | inhibition at 20 ppm [7] | inhibition at 20 ppm [4] | pest or weed control at 200 ppm (Phakopsora pachyrhizi) | pest or weed control at 200 ppm [8] | pest or weed control at 200 ppm [5]

COc1ccnc(C(=O)N[C@@H](C)C(=O)OC(C)C(C)n2ccc3cccc(Br)c32)c1O (stereo partly drawn) [X.11, [2-(7-bromoindol-1-yl)-1-methyl-propyl] (2S)-2-[(3-hydroxy-4-methoxy-pyridine-2-carbonyl)amino]propanoate]
≥ 80%: inhibition at 20 ppm [2, 10] | inhibition at 20 ppm [3, 11] | inhibition at 20 ppm [7, 11] | inhibition at 20 ppm [4, 12] | pest or weed control at 200 ppm (Phakopsora pachyrhizi; [14]) | pest or weed control at 200 ppm [5, 13]

COc1ccnc(C(=O)N[C@@H](C)C(=O)OC(C)C(C)n2ncc3ccccc32)c1O (stereo partly drawn) [X.13, (2-indazol-1-yl-1-methyl-propyl) (2S)-2-[(3-hydroxy-4-methoxy-pyridine-2-carbonyl)amino]propanoate]
≥ 80%: inhibition at 20 ppm [4, 12]

COc1ccnc(C(=O)N[C@@H](C)C(=O)O[C@@H](C)C2(c3cccc4ccccc34)CC2)c1OCOC(C)=O [X.04, [(1S)-1-[1-(1-naphthyl)cyclopropyl]ethyl] (2S)-2-[[3-(acetoxymethoxy)-4-methoxy-pyridine-2-carbonyl]amino]propanoate]
≥ 80%: inhibition at 20 ppm [2, 10] | pest or weed control at 200 ppm [6] | inhibition at 20 ppm [3, 11] | inhibition at 20 ppm [7, 11] | inhibition at 20 ppm [4, 12] | pest or weed control at 200 ppm (Phakopsora pachyrhizi; [14]) | pest or weed control at 200 ppm [8, 15] | pest or weed control at 200 ppm [5, 13]

COc1ccnc(C(=O)N[C@@H](C)C(=O)OC(C)C(C)c2ncc(Cl)cc2Cl)c1OCOC(=O)C(C)C (stereo partly drawn) [X.06, [2-[[(1S)-2-[2-(3,5-dichloro-2-pyridyl)-1-methyl-propoxy]-1-methyl-2-oxo-ethyl]carbamoyl]-4-methoxy-3-pyridyl]oxymethyl 2-methylpropanoate]
≥ 80%: inhibition at 20 ppm [3, 11] | inhibition at 20 ppm [7, 11] | inhibition at 20 ppm [4, 12] | pest or weed control at 200 ppm (Phakopsora pachyrhizi; [14]) | pest or weed control at 200 ppm [5, 13]

COc1ccnc(C(=O)N[C@@H](C)C(=O)OC(C)C2(c3ccc(Cl)cc3)CCC2)c1O (stereo partly drawn) [X.01, 1-[1-(4-chlorophenyl)cyclobutyl]ethyl(2S)-2-[(3-hydroxy-4-methoxy-pyridine-2-carbonyl)amino]propanoate]
≥ 80%: inhibition at 20 ppm [1, 9] | inhibition at 20 ppm [2, 10] | inhibition at 20 ppm [3, 11] | inhibition at 20 ppm [7, 11] | inhibition at 20 ppm [4, 12] | pest or weed control at 200 ppm [5, 13]

COc1ccnc(C(=O)N[C@@H](C)C(=O)OC(C)C(C)c2ccc(Cl)s2)c1O (stereo partly drawn) [X.14, [2-(5-chloro-2-thienyl)-1-methyl-propyl] (2S)-2-[(3-hydroxy-4-methoxy-pyridine-2-carbonyl)amino]propanoate]
≥ 80%: inhibition at 20 ppm [1, 9] | inhibition at 20 ppm [2, 10] | inhibition at 20 ppm [3, 11] | inhibition at 20 ppm [7, 11] | inhibition at 20 ppm [4, 12] | pest or weed control at 200 ppm [5, 13]

COc1ccnc(C(=O)N[C@@H](C)C(=O)OC(C)C(C)n2ccc3ccc(C(F)(F)F)cc32)c1O (stereo partly drawn) [X.12, [1-methyl-2-[6-(trifluoromethyl)indol-1-yl]propyl] (2S)-2-[(3-hydroxy-4-methoxy-pyridine-2-carbonyl)amino]propanoate]
≥ 80%: inhibition at 20 ppm [1, 9] | inhibition at 20 ppm [2, 10] | pest or weed control at 200 ppm [6] | inhibition at 20 ppm [3, 11] | inhibition at 20 ppm [7, 11] | inhibition at 20 ppm [4, 12] | pest or weed control at 200 ppm [5, 13]

COc1ccnc(C(=O)N[C@@H](C)C(=O)OC(C)C(C)n2ccc3c(Cl)ccc(Cl)c32)c1OC(C)=O (stereo partly drawn) [X.15, [2-(4,7-dichloroindol-1-yl)-1-methyl-propyl] (2S)-2-[(3-acetoxy-4-methoxy-pyridine-2-carbonyl)amino]propanoate]
≥ 80%: inhibition at 20 ppm [2, 10] | inhibition at 20 ppm [3, 11] | inhibition at 20 ppm [7, 11] | inhibition at 20 ppm [4, 12] | pest or weed control at 200 ppm [5, 13]

COc1ccnc(C(=O)N[C@@H](C)C(=O)OC(C)C2(c3ccccc3)CCCCC2)c1O (stereo partly drawn) [X.09, 1-(1-phenylcyclohexyl)ethyl (2S)-2-[(3-hydroxy-4-methoxy-pyridine-2-carbonyl)amino]propanoate]
≥ 80%: inhibition at 20 ppm [1, 9] | inhibition at 20 ppm [2, 10] | pest or weed control at 200 ppm [6] | inhibition at 20 ppm [3, 11] | inhibition at 20 ppm [7, 11] | inhibition at 20 ppm [4, 12] | pest or weed control at 200 ppm [5, 13]

COc1ccnc(C(=O)N[C@@H](C)C(=O)O[C@@H](C)C2(c3cccc4ccccc34)CC2)c1OCOC(=O)C(C)C [X.07, [4-methoxy-2-[[(1S)-1-methyl-2-[(1S)-1-[1-(1-naphthyl)cyclopropyl]ethoxy]-2-oxo-ethyl]carbamoyl]-3-pyridyl]oxymethyl 2-methylpropanoate]
≥ 80%: inhibition at 20 ppm [2, 10] | pest or weed control at 200 ppm [6] | inhibition at 20 ppm [7, 11] | inhibition at 20 ppm [4, 12] | pest or weed control at 200 ppm [8, 15] | pest or weed control at 200 ppm [5, 13]

COc1ccnc(C(=O)N[C@@H](C)C(=O)OC(C)C(C)n2ccc3c(F)ccc(Br)c32)c1OC(C)=O (stereo partly drawn) [X.16, [2-(7-bromo-4-fluoro-indol-1-yl)-1-methyl-propyl] (2S)-2-[(3-acetoxy-4-methoxy-pyridine-2-carbonyl)amino]propanoate]
≥ 80%: inhibition at 20 ppm [2, 10] | inhibition at 20 ppm [3, 11] | inhibition at 20 ppm [7, 11] | inhibition at 20 ppm [4, 12] | pest or weed control at 200 ppm (Phakopsora pachyrhizi; [14]) | pest or weed control at 200 ppm [5, 13]

COc1ccnc(C(=O)N[C@@H](C)C(=O)OC(C)C(C)n2ccc3c(Br)ccc(F)c32)c1O (stereo partly drawn) [X.02, [2-(4-bromo-7-fluoro-indol-1-yl)-1-methyl-propyl] (2S)-2-[(3-hydroxy-4-methoxy-pyridine-2-carbonyl)amino]propanoate]
≥ 80%: inhibition at 20 ppm [1, 9] | inhibition at 20 ppm [2, 10] | inhibition at 20 ppm [3, 11] | inhibition at 20 ppm [7, 11] | inhibition at 20 ppm [4, 12] | pest or weed control at 200 ppm (Phakopsora pachyrhizi; [14]) | pest or weed control at 200 ppm [5, 13]
